Consider eight compounds from patent US7541364B2, “Pyridomorphinans, pyridazinomorphinans and use thereof” (priority 2003, dated 2009).

Where two headings read alike, the source gives them in different places. Where only a bound is given, the exact number is not on record here.

Data set [1] concerns the target T1, κ receptor (Cavia porcellus, UniProt P41144). Kind of data set: biochemical.
The target of data set [2] is T2, μ receptor (Cavia porcellus, UniProt A0ACM8Q262). As to conditions: read-out: antagonist activity apparent Ki (nM ± SD) μ; inhibition of DAMGO (10 μM) stimulated [35S]GTP-γ-S binding.
T2 sequence (A0ACM8Q262 1-400): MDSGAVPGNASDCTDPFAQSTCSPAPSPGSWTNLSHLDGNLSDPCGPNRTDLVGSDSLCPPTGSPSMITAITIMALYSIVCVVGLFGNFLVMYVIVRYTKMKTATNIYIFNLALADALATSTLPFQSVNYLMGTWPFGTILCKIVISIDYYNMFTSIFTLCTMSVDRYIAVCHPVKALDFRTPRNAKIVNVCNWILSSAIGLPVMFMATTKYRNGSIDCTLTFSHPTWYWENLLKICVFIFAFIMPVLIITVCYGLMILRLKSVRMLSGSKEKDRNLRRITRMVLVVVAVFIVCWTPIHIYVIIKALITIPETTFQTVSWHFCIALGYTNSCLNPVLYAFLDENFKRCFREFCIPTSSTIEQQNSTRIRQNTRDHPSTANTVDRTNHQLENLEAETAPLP
In another data set the target is T3, opioid δ receptor (Rattus norvegicus, UniProt P33533).
T3 construct: Rat membranes are prepared each day using a partially thawed frozen rat brain; from tissue; host or cells: rat brain membranes
T3 sequence (P33533 whole entry): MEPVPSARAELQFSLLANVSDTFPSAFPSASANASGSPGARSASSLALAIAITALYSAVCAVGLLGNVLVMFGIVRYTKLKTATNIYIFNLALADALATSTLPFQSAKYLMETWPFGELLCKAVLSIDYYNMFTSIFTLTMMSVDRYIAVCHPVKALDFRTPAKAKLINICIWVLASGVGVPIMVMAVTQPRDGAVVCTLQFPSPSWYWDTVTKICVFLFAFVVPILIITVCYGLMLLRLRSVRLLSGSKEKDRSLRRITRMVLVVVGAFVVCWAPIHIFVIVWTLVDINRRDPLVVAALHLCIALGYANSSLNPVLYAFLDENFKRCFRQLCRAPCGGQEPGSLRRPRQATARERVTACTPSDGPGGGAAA
The data set can be described thus: Opioid δ receptor binding, [3H]DADLE displacement in rat brain membranes.

In data set [3] the target is T4, opioid μ receptor (Rattus norvegicus, UniProt P33535). As to conditions: for selectivity ratio μ/δ: ratio of binding Ki values; for Ki: read-out: Ki (nM) ± SEM μ, displacement of [3H]DAMGO (1.4-3.0 nM), rat brain membranes.
T4 sequence (P33535 whole entry): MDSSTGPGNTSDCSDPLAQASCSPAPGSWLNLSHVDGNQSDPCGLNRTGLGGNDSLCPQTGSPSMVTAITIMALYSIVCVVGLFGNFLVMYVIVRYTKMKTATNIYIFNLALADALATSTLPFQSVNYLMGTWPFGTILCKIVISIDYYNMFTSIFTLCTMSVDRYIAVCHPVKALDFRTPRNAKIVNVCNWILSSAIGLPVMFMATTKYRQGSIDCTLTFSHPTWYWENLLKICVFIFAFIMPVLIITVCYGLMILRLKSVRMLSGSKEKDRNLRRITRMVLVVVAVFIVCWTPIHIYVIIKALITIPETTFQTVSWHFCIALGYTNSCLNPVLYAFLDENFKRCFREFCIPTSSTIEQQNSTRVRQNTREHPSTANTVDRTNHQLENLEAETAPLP
The next data set concerns mice. The data set can be described thus: 55° C. tail-flick antinociception test in mice. The settings on record: for naloxone sensitivity: naloxone 10 mg/kg ip, -10 min, yes = greater than 80% reduction in the antinociceptive effect. The procedure: Analgesic Testing and Assessment of Tolerance Development. The analgesic activity of selected ligands is tested in mice using the 55° C. tail-flick test as previously described. (See Wells et al., supra.) The test compounds are administered by the intracerbroventricular (icv) route. […] To determine whether the analgesic activity of the tested compounds is mediated through opioid receptors, the blockade of antinociceptive activity by pretreatment with naloxone is carried out. The analgesic activity was considered as naloxone sensitive if greater than 80% reduction in the antinociceptive response is observed.
Antinociceptive Studies. Male ICR mice (Harlan) are used for all evaluations. Mice are housed in a temperature and humidity controlled vivarium on a 12:12 h light:dark cycle with unlimited access to food and water prior to the formal procedures. […] The dihydrochloride salt of 7h is dissolved in water and injected in a volume of 5 μL. All other compounds are dissolved in 100% DMSO and injected in a volume of 5 μL. Antinociceptive assays are performed at various times after injection.
Percent antinociception is calculated using the formula: % MPE (maximal possible effect)=100×(test−control)/(cutoff−control) where control is the predrug observation, test is the postdrug observation, and cutoff is the maximal length of stimulus allowed (10 s for 55° C. tail-flick). Antinociceptive A50 values and 95% confidence intervals are determined using linear regression software (FlashCalc). Opioid activity of the test compounds are assessed by pretreating animals with naloxone (10 mg/kg ip, −10 min) followed by an icv injection of an approximate A90 dose of test compound. […] Antinociception is assessed in the 55° C. tail-flick test at 10, 20 and 30 min. A positive response to a fixed dose of naloxone is indicated when greater than 80% reduction in the antinociceptive effect of the agonist is observed.

Data set [4] addresses T5, opioid κ receptor (Cavia porcellus, UniProt P41144). The settings on record: for selectivity ratio κ/δ: ratio of binding Ki values; for Ki: read-out: Ki (nM) ± SEM κ, displacement of [3H]U69,593 (1.2-[…]), guinea pig brain membranes.
Data set [5] has as its target T2, μ receptor. Kind of data set: biochemical. The settings on record: read-out: agonist activity Emax % μ.
The target in data set [6] is T6, δ receptor (Cavia porcellus, UniProt A0A286XTF2). The data set can be described thus: biochemical.
T6 sequence (A0A286XTF2 1-366): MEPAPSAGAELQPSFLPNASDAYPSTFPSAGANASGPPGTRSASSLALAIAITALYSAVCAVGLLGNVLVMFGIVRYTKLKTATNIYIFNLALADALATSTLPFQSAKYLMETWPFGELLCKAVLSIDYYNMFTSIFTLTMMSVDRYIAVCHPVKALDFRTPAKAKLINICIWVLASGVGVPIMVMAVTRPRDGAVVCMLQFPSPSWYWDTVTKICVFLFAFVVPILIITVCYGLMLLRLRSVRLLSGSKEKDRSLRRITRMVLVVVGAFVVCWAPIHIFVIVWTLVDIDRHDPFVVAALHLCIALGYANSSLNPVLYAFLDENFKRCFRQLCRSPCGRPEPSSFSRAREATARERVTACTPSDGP
The target of data set [7] is T7, δ receptor (mouse vas deferens) (Mus musculus, UniProt P32300). The data set can be described thus: Mouse vas deferens (MVD) smooth muscle bioassay. The settings on record: inhibition of electrically stimulated contractions; read-out: agonist activity MVD (δ) IC50. The procedure:
(§1) Bioassays in Smooth Muscle Preparations. The functional activity profiles of selected ligands are also determined in the mouse vas deferens (MVD) and guinea pig ileum (GPI) smooth muscle preparations as described previously.
(§2) The agonist activity is determined by the ability of the compound to inhibit electrically stimulated contractions of the GPI and MVD. The GPI is primarily a μ receptor preparation, even though the ileum does also contain κ receptors. In the MVD, the opioid effects are predominantly mediated through δ receptors, but μ and κ receptors also exist in this tissue.
(§3) Tissues came from male ICR mice weighing 25-40 g and male Hartley guinea pigs weighing 250-500 g. The tissues are tied to gold chain with suture silk, suspended in 20 mL baths containing 37° C. oxygenated (95% O2, 5% CO2) Krebs bicarbonate solution (magnesium free for the MVD), and allowed to equilibrate for 15 min. The tissues are then stretched to optimal length previously determined to be 1 g tension (0.5 g for MVD) and allowed to equilibrate for 15 min. The tissues are stimulated transmurally between platinum wire electrodes at 0.1 Hz, 0.4 ms pulses (2-ms pulses for MVD), and supramaximal voltage. […] Tissues not producing typical results are not used. Experimental compounds were added to the baths in 14-60 μL volumes. Succeeding doses of agonist are added cumulatively to the bath at 3 min intervals to produce a concentration-response curve. The tissues are then washed extensively with fresh buffer until the original contraction height is reestablished. […] The tissues are then washed with fresh buffer for 30 min, and the agonist dose-response curve was repeated. Rightward shifts in the dose-response curves are calculated by dividing the antagonized dose-response curve IC50 value by the unantagonized IC50 value. IC50 values represent the mean of two to four tissues. IC50 estimates and their associated standard errors are determined by using a computerized nonlinear least-squares method. (MINSQ Least Squares Parameter Estimation, version 3.05; MicroMath Inc., 1999.)

Data set [8] deals with T6, δ receptor. As to conditions: for maximum percentage inhibition of SNC-80 stimulated [35S]GTP-γ-S binding: δ receptors, partial inhibition with increasing concentrations.
In data set [9] the target is T7, δ receptor (mouse vas deferens). The data set can be described thus: Mouse vas deferens (MVD) smooth muscle bioassay. The settings on record: for antagonist activity MVD (δ) Ke: DPDPE as agonist, 1 μM compound, 30 min preincubation. Set-up: from tissue; host or cells: mouse vas deferens (male ICR mice). As for the experimental part: as §1, §2, §3
Data set [10] has as its target T5, opioid κ receptor. Kind of data set: biochemical.
The target of data set [11] is T4, opioid μ receptor. The data set can be described thus: biochemical.
Data set [12] addresses T1, κ receptor. As to conditions: read-out: antagonist activity apparent Ki (nM ± SD) κ.
Where [13] appears, read: displacement of [3H]DADLE (1.3-2.0 nM), rat brain membranes, 100 nM DAMGO to block μ sites, read-out: Ki (nM) ± SEM δ.

T5 sequence (P41144 whole entry): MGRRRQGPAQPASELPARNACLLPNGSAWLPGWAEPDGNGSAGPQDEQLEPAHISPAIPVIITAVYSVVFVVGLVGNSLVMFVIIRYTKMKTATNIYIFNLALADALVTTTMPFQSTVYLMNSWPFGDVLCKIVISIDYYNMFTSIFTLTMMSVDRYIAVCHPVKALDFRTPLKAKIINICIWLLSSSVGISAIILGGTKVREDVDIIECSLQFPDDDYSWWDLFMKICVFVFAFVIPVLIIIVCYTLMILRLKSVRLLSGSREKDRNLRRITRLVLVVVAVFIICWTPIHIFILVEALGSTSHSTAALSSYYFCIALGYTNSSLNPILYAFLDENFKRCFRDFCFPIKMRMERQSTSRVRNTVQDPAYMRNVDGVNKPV
T1 sequence (P41144 whole entry): as above
T7 sequence (P32300 whole entry): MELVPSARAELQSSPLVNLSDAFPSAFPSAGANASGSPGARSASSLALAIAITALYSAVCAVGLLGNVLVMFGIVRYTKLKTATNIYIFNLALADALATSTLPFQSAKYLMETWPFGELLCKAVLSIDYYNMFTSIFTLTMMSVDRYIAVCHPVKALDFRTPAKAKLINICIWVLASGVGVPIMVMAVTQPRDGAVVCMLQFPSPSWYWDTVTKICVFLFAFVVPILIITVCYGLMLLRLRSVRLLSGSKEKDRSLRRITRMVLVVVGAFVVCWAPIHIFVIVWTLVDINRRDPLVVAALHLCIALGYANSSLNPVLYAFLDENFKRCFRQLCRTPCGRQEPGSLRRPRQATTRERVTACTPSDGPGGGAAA

As to `Oc1ccc2c3c1O[C@H]1c4[nH]c5ccccc5c4C[C@@]4(O)C(C2)N(CC2CC2)CC[C@]314` [1, NTI, reference compound], the Ki is 8.85 ± 0.8 nM at κ receptor [1] and 3.21 ± 0.2 nM at μ receptor [2].

`CN1CC[C@]23c4c5ccc(O)c4O[C@H]2c2ncc(-c4ccccc4)cc2C[C@@]3(O)[C@H]1C5` [7c, 6,7-Didehydro-3,14-dihydroxy-4,5α-epoxy-17-methyl-5′-phenylpyrido[2′,3′:6,7]morphinan] returned a melting point of 190 to 192 °C. The Ki at opioid δ receptor (setting [13]) turned out to be 2.9 ± 0.12 nM. Besides, at opioid μ receptor [3], the “selectivity ratio μ/δ” value amounted to 9 and the Ki stood at 26 ± 0.96 nM. The “% nociception @ 100 nmol” value in the data set on mice (icv, 100 nmol, mouse tail-flick) turned out to be 64% @ 100 nmol. The “factor that prevented determining the A50 value” in the data set with mice (icv, mouse tail-flick) was “lack of efficacy”. For the same compound, the naloxone sensitivity result in the data set with mice is “no”. Moreover, on opioid κ receptor [4], the “selectivity ratio κ/δ” value came out at 124 and the Ki came to 360 ± 17 nM. Besides, the Emax on μ receptor [5] is 27%. The IC50 at δ receptor [6] was determined as 920 nM. Besides, the IC50 in data set [7] turned out to be 213 ± 55.8 nM. Moreover, the “maximum percentage inhibition of SNC-80 stimulated [35S]GTP-γ-S binding” value on δ receptor [8] was determined as 61±3%. For the same compound, the Ki at μ receptor [2] was > 1000 nM.

The compound `CN1CC[C@]23c4c5ccc(O)c4O[C@H]2c2ncc(-c4ccc(Cl)cc4)cc2C[C@@]3(O)[C@H]1C5` [7d, 5′-(4-Chlorophenyl)-6,7-didehydro-3,14-dihydroxy-4,5α-epoxy-17-methylpyrido[2′,3′:6,7]morphinan] displayed a melting point of 196 to 198 °C. In addition, the Ki at opioid δ receptor amounted to 3.96 ± 0.23 nM. Moreover, at opioid μ receptor [3], the “selectivity ratio μ/δ” value is reported as 58 and the Ki turned out to be 230 ± 10 nM. The “% nociception @ 300 nmol” value in the data set on mice (icv, 300 nmol, mouse tail-flick) amounted to 43% @ 300 nmol. Further, the “factor that prevented determining the A50 value” with mice (icv, mouse tail-flick) is on record as “lack of potency”. Besides, in the data set on mice, the naloxone sensitivity entry is given as “partial”. At opioid κ receptor [4], the “selectivity ratio κ/δ” value is 118 and the Ki worked out at 468 ± 17 nM. Besides, the Ki on δ receptor [6] worked out at 17 nM. In addition, at κ receptor [1], the Ki stood at 767 ± 54 nM. In [9], the Kb stood at 38.2 ± 14.7 nM and the “antagonist activity MVD (δ) Ke” value worked out at 38 nM. In addition, on μ receptor [2], the Ki is > 1000 nM.

In turn, `CN1CCC23c4c5ccc(O)c4OC2c2ncc(-c4ccc(Br)cc4)cc2CC3(O)C1C5` (stereo not drawn) [7e, 5′-(4-Bromophenyl)-6,7-didehydro-3,14-dihydroxy-4,5α-epoxy-17-methylpyrido[2′,3′:6,7]morphinan] had a melting point of 196 to 198 °C. The compound further came in with a Ki on opioid δ receptor of 4 ± 0.3 nM. The “selectivity ratio μ/δ” value on opioid μ receptor [3] was found to be 49. Besides, at opioid κ receptor [10], the Ki was found to be 432 ± 18 nM. Further, the “selectivity ratio κ/δ” value on opioid κ receptor [4] worked out at 108. The same compound gave a Ki on opioid μ receptor [11] of 196 ± 4 nM.

`CN1CC[C@]23c4c5ccc(O)c4O[C@H]2c2ncc(-c4ccc(Br)cc4)cc2C[C@H]3[C@H]1C5` [7i, 5′-(4-Bromophenyl)-6,7-didehydro-4,5α-epoxy-3-hydroxy-17-methylpyrido[2′,3′:6,7]morphinan] returned a melting point of 186 to 188 °C. In addition, at opioid δ receptor (setting [13]), the Ki came to 5 ± 0.6 nM. Besides, at opioid μ receptor [3], the “selectivity ratio μ/δ” value is 40 and the Ki is 200 ± 11 nM. Besides, the A50 with mice (icv, mouse tail-flick, at time of peak drug effect) came to 47.2 nmol. For the same compound, the naloxone sensitivity entry in the data set with mice is “yes”. At opioid κ receptor [4], the “selectivity ratio κ/δ” value was found to be 18 and the Ki was 91 ± 6 nM. The Emax on μ receptor [5] was 59 ± 3%. Also, the IC50 on δ receptor [6] stood at 55 nM. For the same compound, the “maximum percentage inhibition of SNC-80 stimulated [35S]GTP-γ-S binding” value on δ receptor [8] is recorded as 69±3%. Besides, the Kb in [9] was 20 ± 6.59 nM. On μ receptor [2], the Ki is > 1000 nM. For the same compound, the Ki at κ receptor [12] turned out to be 265 ± 29 nM.

The compound `CN1CC[C@]23c4c5ccc(O)c4O[C@H]2c2ncc(-c4ccc(Cl)cc4Cl)cc2C[C@H]3[C@H]1C5` [7k, 5′-(2,4-Dichlorophenyl)-6,7-didehydro-4,5α-epoxy-3-hydroxy-17-methylpyrido[2′,3′:6,7]morphinan] came in with a melting point of 198 to 200 °C. Besides, the “enhancement in binding affinity at the δ receptor relative to 7h” value at opioid δ receptor came to 4 fold. Moreover, the Ki at opioid δ receptor (setting [13]) came out at 1.1 nM. Besides, on opioid μ receptor [3], the “selectivity ratio μ/δ” value turned out to be 88 and the Ki was 97 ± 4 nM. For the same compound, the “% nociception @ 60 nmol” value in the data set with mice (icv, 60 nmol, mouse tail-flick) was 40% @ 60 nmol^e. The “factor that prevented determining the A50 value” in the data set with mice (icv, mouse tail-flick) is recorded as “lack of efficacy”. In addition, at opioid κ receptor [4], the “selectivity ratio κ/δ” value is 366 and the Ki amounted to 403 ± 9 nM. The Emax at μ receptor [5] is 51 ± 5%. The compound also yielded a Ki on δ receptor [6] of 1.08 ± 0.11 nM. The “improvement in antagonist potency at the δ receptor relative to 7h” value on δ receptor [8] came out at 10 fold. Further, in data set [9], the Kb came to 5.02 ± 1.56 nM and the “antagonist activity MVD (δ) Ke” value is given as 5 nM. For the same compound, the Ki at μ receptor [2] is > 1000 nM. Also, the Ki on κ receptor [12] stood at 308 ± 21 nM.

`COc1ccc2c3c1OC1c4ncc(-c5ccccc5)cc4CC4(O)C(C2)N(C)CCC314` (stereo not drawn) [7n, 6,7-didehydro-4,5α-epoxy-14-hydroxy-3-methoxy-17-methyl-5′-phenylpyrido[2′,3′:6,7]-morphinan]: the melting point is > 250 °C. This compound also returned a Ki on opioid δ receptor of 34 ± 0.63 nM. Also, the “selectivity ratio μ/δ” value on opioid μ receptor [3] was 26. Also, on opioid κ receptor [10], the Ki is > 10000 nM. For the same compound, the “selectivity ratio κ/δ” value on opioid κ receptor [4] is recorded as >294. On opioid μ receptor [11], this compound gave a Ki of 894 ± 19 nM.

Consider `COc1ccc2c3c1OC1c4ncc(-c5ccc(Br)cc5)cc4CC4(O)C(C2)N(C)CCC314` (stereo not drawn) [7p, 5′-(4-bromophenyl)-6,7-didehydro-4,5α-epoxy-14-hydroxy-3-methoxy-17-methyl-pyrido[2′,3′:6,7]morphinan], for which the melting point is > 230 °C. In addition, the Ki on opioid δ receptor turned out to be 23 ± 1.3 nM. The “selectivity ratio μ/δ” value at opioid μ receptor [3] is recorded as 82. Further, the Ki at opioid κ receptor [10] is 7370 ± 522 nM. The “selectivity ratio κ/δ” value at opioid κ receptor [4] is listed as 320. Besides, the Ki at opioid μ receptor [11] stood at 1890 ± 72 nM.
